Results as given in patent publication US8404930B2, “Methods for improving monocot transformation” (Pioneer Hi-Bred International, Inc., priority 2009, dated 2013).
Where “and” joins values, the source holds several entries; their conditions need not be identical. Equal values may be shown once. Read-outs that look alike come from different tables or passages of the source.

Assays:
[1] = tested on: Maize inbred PHR03 immature embryos; conditions: for Transformation frequency (%): dark
Method: (§1) Maize inbred PHR03 immature embryos (9-13 DAP when embryo size around 0.8-2.5 mm) were infected with 5×10^8 cfu/mL Agrobacterium LBA4404 containing superbinary vector PHPMRFP in PHI-I liquid medium. The embryos were then co-cultivated on PHI-T co-cultivation media plates at 21° C. in dark conditions for 3 days. This may range from 1-7 days.
(§2) The embryos were subcultured every 2-3 weeks.
(§3) A regeneration step is followed by culturing the putative transgenic callus on PHI-RF medium plates for producing shoots and a rooting step on medium plates PHI-RR.
Transformation frequency was calculated by the number of embryos producing transgenic callus capable of regenerating plants divided by the number of embryos infected by Agrobacterium.

[2] = tested on: Maize inbred PHR03 immature embryos; conditions: for Transformation frequency (%): dark; remark: listed apart in the source
Method: as §1, §2, §3
(§4) Transformation frequency was calculated by the number of embryos producing transgenic plants divided by the number of embryos infected by Agrobacterium.

[3] = tested on: Sorghum line TX430 immature embryos
Method: (§5) Sorghum line TX430 immature embryos (9-15 DAP when embryo size around 0.8-2.5 mm) were infected with 1×10^9cfu/mL Agrobacterium LBA4404 containing superbinary vector PHPMYFP in PHI-I liquid medium. The embryos were co-cultivated on PHI-T medium plates at 25° C. (ranged 21-25° C.) in dark for 3 days (ranged 1-7 days).
The whole selection step was in dark or dim light at 28° C. After two to three months from the initiation of the experiment, transgenic callus events were cultured for plant regeneration on the same regeneration medium (PHI-RF and PHI-Z) at the regular regeneration conditions.
as §4

[4] = tested on: Sorghum line TX430 immature embryos; conditions: for Transformation frequency (%): dark
Method: as §5
(§6) The whole selection step was in dark at 28° C. After two to three months from the initiation of the experiment, transgenic callus events were cultured for plant regeneration on the same regeneration medium (PHI-RF and PHI-Z) at the regular regeneration conditions.
Transformation frequency was calculated by the number of embryos producing transgenic callus capable of regeneration divided by the number of embryos infected by Agrobacterium

[5] = tested on: Sorghum line TX430 immature embryos; conditions: for Transformation frequency (%): dark; remark: listed apart in the source
Method: as §5, §6
Transformation frequency was calculated by the number of embryos producing transgenic plants divided by the number of embryos infected by Agrobacterium

[6] = tested on: Maize inbred PHR03 immature embryos; test: Transformation frequency of maize using various light intensities (Example 18); assay type: cell-based; conditions: 4 μM copper in DBC3 resting and selection media
Method: as §1, §2
A regeneration step was followed by culturing the putative transgenic callus on PHI-RF medium plates for producing shoots and a rooting step on medium plates PHI-RR.
as §4

[7] = 0.1 μM copper (negative control) in DBC3 resting and selection media, Average of exp 1-4
[8] = 0.1 μM copper (negative control) in DBC3 resting and selection media, single experiments exp 1-4
[9] = 5 μM copper in DBC3 resting and selection media, Average of exp 1-4

## O=S(=O)([O-])[O-].[Cu+2] [copper, cupric sulfate]
[1]; [7]
  Transformation frequency (%): 4.4%
[1]; [8]
  Transformation frequency (%): 2.5% and 5.0% and 7.5%
[1]; 1 μM copper and above, maize
  increase of transformation frequency over 0.1 μM copper: 3-5 times
[1]; 1 μM copper in DBC3 resting and selection media, Average of exp 1-4
  Transformation frequency (%): 16.9%
[1]; 1 μM copper in DBC3 resting and selection media, single experiments exp 1-4
  Transformation frequency (%): 15% and 17.5% and 20%
[1]; 4 μM copper in DBC3 resting and selection media, Average of exp 1-4
  Transformation frequency (%): 11.9%
[1]; [9]
  Transformation frequency (%): 23.1%
[2]; 0.1 μM copper (negative control) in DBC3 resting and selection media, Average of exp 1-5
  Transformation frequency (%): 2.9%
[2]; 0.1 μM copper (negative control) in DBC3 resting and selection media, single experiments exp 1-5
  Transformation frequency (%): 5.0% and 0.0% and 10.0%
[2]; 5 μM copper and above, maize
  increase of transformation frequency over 0.1 μM copper: 4-7 times
[2]; 5 μM copper in DBC3 resting and selection media, Average of exp 1-5
  Transformation frequency (%): 23.5%
[2]; 10 μM copper in DBC3 resting and selection media, Average of exp 1-5
  Transformation frequency (%): 19.0%
[2]; 30 μM copper in DBC3 resting and selection media, Average of exp 1-5
  Transformation frequency (%): 14.0%
[2]; 50 μM copper in DBC3 resting and selection media, Average of exp 1-5
  Transformation frequency (%): 21.0%
[3]; 4 μM copper in DBC3 resting and selection media, Dim light, Average of exp 1-2
  Transformation frequency (%): 31.3%
[3]; 4 μM copper in DBC3 resting and selection media, dark, Average of exp 1-2
  Transformation frequency (%): 17.1%
[3]; 5 μM copper in DBC3 resting and selection media, Dim light, Average of exp 1-2
  Transformation frequency (%): 20.0%
[3]; 5 μM copper in DBC3 resting and selection media, dark, Average of exp 1-2
  Transformation frequency (%): 26.3%
[3]; 5 μM copper in DBC3 resting and selection media, dark, single experiments exp 1-2
  Transformation frequency (%): 27.5% and 25.0%
[4]; 0.1 μM copper in DBC3 resting and selection media, Average of exp 1-2
  Transformation frequency (%): 10.0%
[4]; 0.1 μM copper in DBC3 resting and selection media, single experiments exp 1-2
  Transformation frequency (%): 15.0% and 5.0%
[4]; 1 μM copper and above, sorghum
  increase of transformation frequency over 0.1 μM copper: two times
[4]; 1 μM copper in DBC3 resting and selection media, Average of exp 1-2
  Transformation frequency (%): 23.8%
[4]; 1 μM copper in DBC3 resting and selection media, single experiments exp 1-2
  Transformation frequency (%): 30.0% and 17.5%
[4]; 4 μM copper in DBC3 resting and selection media, Average of exp 1-2
  Transformation frequency (%): 17.1%
[4]; 5 μM copper in DBC3 resting and selection media, Average of exp 1-2
  Transformation frequency (%): 26.3%
[4]; 5 μM copper in DBC3 resting and selection media, single experiments exp 1-2
  Transformation frequency (%): 27.5% and 25.0%
[5]; [7]
  Transformation frequency (%): 2.0%
[5]; [8]
  Transformation frequency (%): 3.33% and 2.50% and 0.00%
[5]; 5 μM copper and above, sorghum
  increase of transformation frequency over 0.1 μM copper: 4-6 times
[5]; [9]
  Transformation frequency (%): 13.8%
[5]; 5 μM copper in DBC3 resting and selection media, single experiments exp 1-4
  Transformation frequency (%): 16.67% and 15.00% and 8.33%
[5]; 10 μM copper in DBC3 resting and selection media, Average
  Transformation frequency (%): 13.0%
[5]; 10 μM copper in DBC3 resting and selection media, single experiments exp 1-4
  Transformation frequency (%): 20.00% and 10.00% and 12.50%
[5]; 30 μM copper in DBC3 resting and selection media, Average of exp 1-4
  Transformation frequency (%): 8.2%
[5]; 50 μM copper in DBC3 resting and selection media, Average of exp 1-4
  Transformation frequency (%): 9.6%
[5]; 50 μM copper in DBC3 resting and selection media, single experiments exp 1-4
  Transformation frequency (%): 5.00% and 10.00% and 11.11%
[6]; Dark, single experiments exp 1-4
  Transformation frequency (%): 10% and 17.5% and 12.5% and 7.5%
[6]; Dim light, Average of exp 1-4
  Transformation frequency (%): 17.5%
[6]; dark, Average of exp 1-4
  Transformation frequency (%): 11.9%
